Measured values from US5094857A, “Treatment of acne or androgenetic alopecia by topical administration of ethisterone” (priority 1987, dated 1992).

Legend:
[1] = system: androgenetic alopezia; assay: Hair growth material on bald spots in androgenetic alopezia (Example VI); type: in vivo; details: for hair growth on previously bald spot: 2% solution in 50% ethanol and 50% Tween 20, rubbed twice daily, 1 mg per cm^2, four weeks; for undesirable side effects: topical, twice daily, 2% solution
Description: A 2% solution of nor-ethisterone in 50% ethanol and 50% Tween 20, was utilized for the assistance in hair growth by androgenetic alopezia. The bald spots were rubbed twice daily with a sufficient amount of hair growth material to provide a concentration of 1 mg per cm^2 nor-ethisterone through the skin barrier to the receptor site.

[2] = molecular target: T1, androgen receptor preparations of sebaceous glands (Mesocricetus auratus, UniProt A0A1U7QL32); assay: Competitive binding analysis (displacement of tritium-marked R 1881); parameters: species or system Syrian hamster; details: for in vitro affinity at 50% blocking (rank order): displacement of 8 nM tritium-marked R 1881, FIG. 1; for affinity (RBA) for the androgen receptors, in words: displacement of tritium-marked R 1881
T1 construct: [3H]R1881 displacement with excess triamcinolone acetate
T1 sequence (A0A1U7QL32 1-900): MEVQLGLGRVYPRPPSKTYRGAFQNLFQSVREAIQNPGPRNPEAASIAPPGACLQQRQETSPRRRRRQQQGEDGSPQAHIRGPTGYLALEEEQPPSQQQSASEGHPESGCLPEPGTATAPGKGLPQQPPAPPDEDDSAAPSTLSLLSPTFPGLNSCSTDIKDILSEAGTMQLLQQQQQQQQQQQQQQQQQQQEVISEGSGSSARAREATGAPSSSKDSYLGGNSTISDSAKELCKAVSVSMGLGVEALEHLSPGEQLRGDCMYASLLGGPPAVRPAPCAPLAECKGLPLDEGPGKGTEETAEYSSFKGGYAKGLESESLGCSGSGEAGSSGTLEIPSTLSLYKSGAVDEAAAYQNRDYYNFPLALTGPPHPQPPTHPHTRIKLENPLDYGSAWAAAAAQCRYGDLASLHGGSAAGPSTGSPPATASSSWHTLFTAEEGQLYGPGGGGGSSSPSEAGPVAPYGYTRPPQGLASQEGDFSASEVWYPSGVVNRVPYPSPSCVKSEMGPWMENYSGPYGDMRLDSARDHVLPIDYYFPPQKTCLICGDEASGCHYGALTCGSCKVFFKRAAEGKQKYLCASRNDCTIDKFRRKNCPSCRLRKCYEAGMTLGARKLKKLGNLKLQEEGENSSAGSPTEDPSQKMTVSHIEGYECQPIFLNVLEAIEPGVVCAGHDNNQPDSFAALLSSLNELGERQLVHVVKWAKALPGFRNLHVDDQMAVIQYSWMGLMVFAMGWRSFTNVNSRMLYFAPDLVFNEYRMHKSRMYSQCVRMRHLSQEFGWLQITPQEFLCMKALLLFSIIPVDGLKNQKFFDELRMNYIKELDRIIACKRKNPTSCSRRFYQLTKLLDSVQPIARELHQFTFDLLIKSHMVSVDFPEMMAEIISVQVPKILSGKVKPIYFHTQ
Excerpt: The standardisation basis in competitive binding analysis is the concentration of the competitor which, can displace 50% of a radioactively labeled reference substance from the receptor. This is conditioned upon the assumption that a relative binding efficiency (RPA) is proof of a high […] in the test material.
The comparison of the in vivo sebum suppression with RBA to the androgen receptor in vitro, should give the key to the answer of whether the substance itself or metabolites thereof, are responsible for the activity.
For the competitive study the web material of five ear shells was gathered. After homogenization in buffer A (10 mM-Tris-HCl-pH 7.4; 1.5 mM EDTA; 5 mM monothiogylcerine) cytosol was obtained as a supernate after ultracentrification at 120×10^3 g for thirty minutes at 4° C. The protein content was adjusted to between 1 to 5 mg/ml with a buffer A.
After a reaction time of 12 hours at 4° C. to achieve equilibrium, the unbound steroid hormones were removed from the reaction mixture by means of dextrancoated activated charcoal suspension (0.5% activated charcoal and 0.05% detran in […] Tris-HCl-buffer; pH 7.4). An aliquot of the supernate after centrifugation was measured in a fluid scintillation counter.

[3] = molecular target: T2, gestogen receptors (Ovis aries, UniProt A0ACI6RU96); assay: Binding to gestogen receptors in a sheep uterus (FIG. 2)
T2 sequence (A0ACI6RU96 1-911): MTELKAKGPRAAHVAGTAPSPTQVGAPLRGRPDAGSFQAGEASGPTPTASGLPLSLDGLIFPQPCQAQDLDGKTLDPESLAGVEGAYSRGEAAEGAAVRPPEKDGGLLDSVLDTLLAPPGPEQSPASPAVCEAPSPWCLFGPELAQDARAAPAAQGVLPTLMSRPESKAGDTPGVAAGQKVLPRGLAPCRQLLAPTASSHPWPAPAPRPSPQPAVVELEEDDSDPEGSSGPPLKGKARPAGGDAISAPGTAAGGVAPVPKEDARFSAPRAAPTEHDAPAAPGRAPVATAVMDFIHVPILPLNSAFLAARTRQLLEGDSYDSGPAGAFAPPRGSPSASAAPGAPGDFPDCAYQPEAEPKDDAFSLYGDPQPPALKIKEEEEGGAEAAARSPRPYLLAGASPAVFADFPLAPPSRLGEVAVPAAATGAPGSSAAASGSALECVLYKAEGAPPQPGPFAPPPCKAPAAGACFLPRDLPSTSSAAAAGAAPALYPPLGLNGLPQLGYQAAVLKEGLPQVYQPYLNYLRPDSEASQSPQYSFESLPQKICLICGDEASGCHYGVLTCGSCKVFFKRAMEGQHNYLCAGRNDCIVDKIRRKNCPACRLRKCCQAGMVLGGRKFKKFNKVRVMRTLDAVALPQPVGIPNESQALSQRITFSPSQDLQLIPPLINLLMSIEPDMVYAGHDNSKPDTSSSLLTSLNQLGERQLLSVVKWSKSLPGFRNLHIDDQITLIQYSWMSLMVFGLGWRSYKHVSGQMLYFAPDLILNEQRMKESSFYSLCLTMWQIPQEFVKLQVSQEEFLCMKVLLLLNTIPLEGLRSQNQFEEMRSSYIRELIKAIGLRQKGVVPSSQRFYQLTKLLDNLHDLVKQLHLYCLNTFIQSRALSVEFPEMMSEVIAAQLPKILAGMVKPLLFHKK
Excerpt: These experiments relating to the competitive binding of different hormanal substances can only describe certain aspects of the binding kinetics, but not all aspects of the pharmacokinetics. It is thus necessary to test the biological effects of steroid hormones by in vivo methods.

[4] = system: skin upper surface lipids; assay: Human studies: skin surface lipid content after topical ethisterone lotion; type: in vivo
Description: A 2% ethisterone formulation was prepared in accordance with Example I. Five male and five female human test subjects took part in the experiment who were treated on their left foreheads with the ethisterone lotion. The subjects applied the lotion twice a day at a concentration of approximately 0.1 mg per cm^2 of ethisterone applied to the receptors.
The lipid content of the upper skin surface of both left and right forehead portions were measured prior to the onset of therepy (0 control), in the second and the fourth weeks of therapy.
Initially the replacement sum was determined. The skin was first cleaned with cigarette paper dipped in acetone and stroked six to eight times over the test area. After sixty minutes the skin lipids were removed from the skin portion of the following manner. Cigarette paper was placed by means of tweezers on the segment to be measured and on the cigarette paper was placed a mass of 280 grams having a surface area of 5 cm^2. Thereafter, the paper was eluted with a mixture comprising 70 parts of acetone and 30 parts of methanol. The thus produced eluate was evaporated to dryness and treated with phosphovanillic acid, thereafter the eluate was evaluated by gas chromatography. Previously, the gas chromatograph had been calibrated with 25 standard skin lipids (mono-di-, triglyceride, cholesterol as well as cholesterol esters, oleic acid esters, having 10 to 18 carbon atoms as well as waxes having up to 28 carbon atoms).
The eluate was also subjected, to thin layer chromomatography. It is noted that generally, speaking the standard substances may be regarded as representative of skin upper surface lipids.

[5] = ethisterone in oil-in-water emulsion applied to the skin (summary statement)

SMILES	hair growth on previously bald spot [1]	undesirable side effects [1]	in vitro affinity at 50% blocking (rank order) [2]	affinity (RBA) for the androgen receptors, in words [2]	binding affinity to gestogen receptors (comparison) [3]	lipid content on treated skin upper surface area less than untreated area ([4]; 2% ethisterone lotion twice a day on left forehead, approx. 0.1 mg per cm^2, four week treatment) [%]	wax content reduced ([4]; 2% ethisterone lotion twice a day on left forehead, four week treatment) [%]	reduction of lipids which comprise waxy substances (C20 to C28) [4, 5] [% by weight]	reduction of total lipid content of the skin from the initial value [4, 5]
CCCC1(O)CCC2C3CCC4CC(=O)CC(C)C4(C)C3CCC21C (stereo not drawn) [17-alpha-PM, 17-alpha-propyl-mesterolone]	practically the same result is obtained	no undesirable side effects were noted	R 1881, 17-alpha-PM, ethisterone, CPA, SL and dexamethasone	substantially higher affinity	–	–	–	–	–
C#C[C@]1(O)CC[C@H]2[C@@H]3CCC4=CC(=O)CC[C@@H]4[C@H]3CC[C@@]21C [nor-ethisterone, 17-hyroxy-19-norpregn-4-en-20-yn-3-one]	a hair fuzz is noted on the previously bald spot	no undesirable side effects were noted	–	–	higher binding affinity than progesterone and ethisterone	–	–	–	–
CC(=O)[C@H]1CC[C@H]2[C@@H]3CCC4=CC(=O)CC[C@]4(C)[C@H]3CC[C@]12C [progesterone]	–	–	–	–	nor-ethisterone has a higher binding affinity than progesterone and ethisterone	–	–	–	–
C[C@@H]1C[C@H]2[C@@H]3CCC4=CC(=O)C=C[C@]4(C)[C@@]3(F)[C@@H](O)C[C@]2(C)[C@@]1(O)C(=O)CO [dexamethasone]	–	–	R 1881, 17-alpha-PM, ethisterone, CPA, SL and dexamethasone	may be disregarded	–	–	–	–	–
C#C[C@]1(O)CC[C@H]2[C@@H]3CCC4=CC(=O)CC[C@]4(C)[C@H]3CC[C@@]21C [ethisterone, 17-alpha-hydroxypregen-4-en-20-yn-3-one]	–	–	R 1881, 17-alpha-PM, ethisterone, CPA, SL and dexamethasone	satisfactory middle place between 17-alpha-PM and synthetic R 1881	nor-ethisterone has a higher binding affinity than progesterone and ethisterone	25	75	75	about 25%
